Results reported in publication PMC10254649, “Design, Synthesis, and Biological Evaluation of Potent and Selective Inhibitors of Ataxia Telangiectasia Mutated and Rad3-Related (ATR) Kinase for the Efficient Treatment of Cancer” (Molecules, 2023).
“And” between values parts separate entries of the source, which are not always exact repeats. Identical values can stand only once.

What was measured:
LoVo cells = test: CCK-8 cell proliferation assay, LoVo; format: cell-based; conditions: Homo sapiens, CCK-8, 72 h, ATM-deficient cell line, three independent experiments, read-out: IC50 ± SD, LoVo
Protocol: (§1) A549, HCT116, NCI-H23, and LoVo cells were purchased from the Cell Resources Center of Shanghai Academy of Life Sciences, Shanghai, China. A549 cells were cultured in McCoy’s5A medium supplemented with 10% FBS (KeyGEN Biotech, Nanjing, China) and 1% penicillin/streptomycin (Gibco, 15070-063). HCT116 cells were cultured in IMDM medium supplemented with 10% FBS (KeyGEN Biotech, Nanjing, China) and 1% penicillin/streptomycin (Gibco, 15070-063). NCI-H23 cells were cultured in RPMI 1640 medium supplemented with 10% FBS (KeyGEN Biotech, Nanjing, China) and 1% penicillin/streptomycin (Gibco, 15070-063). LoVo cells were cultured in F12K medium supplemented with 10% FBS (KeyGEN Biotech, Nanjing, China) and 1% penicillin/streptomycin (Gibco, 15070-063). All cells were cultured in an incubator at 37 °C under a 5% CO2 atmosphere.
(§2) For the assay, 3000/well cells were planted into 96-well plates for 24 h and then treated with the indicated doses of drugs or controls for 72 h. Following the manufacturer’s instructions, cell proliferation/survival was measured using the CCK-8 (KeyGEN Biotech, Nanjing, China) assay and plotted via GraphPad 8.0.

HCT116 cells = test: CCK-8 cell proliferation assay, HCT116; format: cell-based; conditions: Homo sapiens, HCT-116; CCK-8, 72 h, ATM-normal cell line, three independent experiments; read-out: IC50 ± SD, HCT116
Protocol: as §1, §2

A549 cells = test: CCK-8 cell proliferation assay, A549; format: cell-based; conditions: Homo sapiens, CCK-8, 72 h, ATM-normal cell line, three independent experiments, read-out: IC50 ± SD, A549
Protocol: as §1, §2

LoVo xenografts = test: LoVo tumor xenograft mouse model, antitumor efficacy and tolerability; format: in vivo
Protocol: Balb/c nude mice (18–22 g, female, 4 weeks old) were purchased from Hangzhou Medical College (Hangzhou, China). All mice were inoculated subcutaneously in the right flank with 5 × 10^6 LoVo cells to initiate tumor growth. When the mean tumor volume reached approximately 100 mm^3, all mice were randomly divided into 8 groups (n = 5 per group) based on body weight and volume. […] Cisplatin was administered twice a week at the indicated doses. Tumor size and animal weight were measured every 3 days. Tumor volume was calculated as tumor volume (cm^3) = (length × width^2)/2. Tumor inhibition rate (%) = (1 − mean tumor weight in the treatment group/mean tumor weight in the control group) × 100%. The results were obtained from 5 test mice (mean ± SD) and calculated using GraphPad 8.0 software.

NCI-H23 cells = test: CCK-8 cell proliferation assay, NCI-H23; format: cell-based; conditions: Homo sapiens, CCK-8, 72 h, ATM-deficient cell line, three independent experiments, read-out: IC50 ± SD, NCI-H23
Protocol: as §1, §2

ATR = ATR (Homo sapiens, UniProt Q13535); test: In vitro inhibitory activity against the ATR enzyme; format: biochemical; conditions: mean ± SD of two independent experiments; read-out: ATR IC50 ± SD
Chain of ATR (Q13535 whole entry): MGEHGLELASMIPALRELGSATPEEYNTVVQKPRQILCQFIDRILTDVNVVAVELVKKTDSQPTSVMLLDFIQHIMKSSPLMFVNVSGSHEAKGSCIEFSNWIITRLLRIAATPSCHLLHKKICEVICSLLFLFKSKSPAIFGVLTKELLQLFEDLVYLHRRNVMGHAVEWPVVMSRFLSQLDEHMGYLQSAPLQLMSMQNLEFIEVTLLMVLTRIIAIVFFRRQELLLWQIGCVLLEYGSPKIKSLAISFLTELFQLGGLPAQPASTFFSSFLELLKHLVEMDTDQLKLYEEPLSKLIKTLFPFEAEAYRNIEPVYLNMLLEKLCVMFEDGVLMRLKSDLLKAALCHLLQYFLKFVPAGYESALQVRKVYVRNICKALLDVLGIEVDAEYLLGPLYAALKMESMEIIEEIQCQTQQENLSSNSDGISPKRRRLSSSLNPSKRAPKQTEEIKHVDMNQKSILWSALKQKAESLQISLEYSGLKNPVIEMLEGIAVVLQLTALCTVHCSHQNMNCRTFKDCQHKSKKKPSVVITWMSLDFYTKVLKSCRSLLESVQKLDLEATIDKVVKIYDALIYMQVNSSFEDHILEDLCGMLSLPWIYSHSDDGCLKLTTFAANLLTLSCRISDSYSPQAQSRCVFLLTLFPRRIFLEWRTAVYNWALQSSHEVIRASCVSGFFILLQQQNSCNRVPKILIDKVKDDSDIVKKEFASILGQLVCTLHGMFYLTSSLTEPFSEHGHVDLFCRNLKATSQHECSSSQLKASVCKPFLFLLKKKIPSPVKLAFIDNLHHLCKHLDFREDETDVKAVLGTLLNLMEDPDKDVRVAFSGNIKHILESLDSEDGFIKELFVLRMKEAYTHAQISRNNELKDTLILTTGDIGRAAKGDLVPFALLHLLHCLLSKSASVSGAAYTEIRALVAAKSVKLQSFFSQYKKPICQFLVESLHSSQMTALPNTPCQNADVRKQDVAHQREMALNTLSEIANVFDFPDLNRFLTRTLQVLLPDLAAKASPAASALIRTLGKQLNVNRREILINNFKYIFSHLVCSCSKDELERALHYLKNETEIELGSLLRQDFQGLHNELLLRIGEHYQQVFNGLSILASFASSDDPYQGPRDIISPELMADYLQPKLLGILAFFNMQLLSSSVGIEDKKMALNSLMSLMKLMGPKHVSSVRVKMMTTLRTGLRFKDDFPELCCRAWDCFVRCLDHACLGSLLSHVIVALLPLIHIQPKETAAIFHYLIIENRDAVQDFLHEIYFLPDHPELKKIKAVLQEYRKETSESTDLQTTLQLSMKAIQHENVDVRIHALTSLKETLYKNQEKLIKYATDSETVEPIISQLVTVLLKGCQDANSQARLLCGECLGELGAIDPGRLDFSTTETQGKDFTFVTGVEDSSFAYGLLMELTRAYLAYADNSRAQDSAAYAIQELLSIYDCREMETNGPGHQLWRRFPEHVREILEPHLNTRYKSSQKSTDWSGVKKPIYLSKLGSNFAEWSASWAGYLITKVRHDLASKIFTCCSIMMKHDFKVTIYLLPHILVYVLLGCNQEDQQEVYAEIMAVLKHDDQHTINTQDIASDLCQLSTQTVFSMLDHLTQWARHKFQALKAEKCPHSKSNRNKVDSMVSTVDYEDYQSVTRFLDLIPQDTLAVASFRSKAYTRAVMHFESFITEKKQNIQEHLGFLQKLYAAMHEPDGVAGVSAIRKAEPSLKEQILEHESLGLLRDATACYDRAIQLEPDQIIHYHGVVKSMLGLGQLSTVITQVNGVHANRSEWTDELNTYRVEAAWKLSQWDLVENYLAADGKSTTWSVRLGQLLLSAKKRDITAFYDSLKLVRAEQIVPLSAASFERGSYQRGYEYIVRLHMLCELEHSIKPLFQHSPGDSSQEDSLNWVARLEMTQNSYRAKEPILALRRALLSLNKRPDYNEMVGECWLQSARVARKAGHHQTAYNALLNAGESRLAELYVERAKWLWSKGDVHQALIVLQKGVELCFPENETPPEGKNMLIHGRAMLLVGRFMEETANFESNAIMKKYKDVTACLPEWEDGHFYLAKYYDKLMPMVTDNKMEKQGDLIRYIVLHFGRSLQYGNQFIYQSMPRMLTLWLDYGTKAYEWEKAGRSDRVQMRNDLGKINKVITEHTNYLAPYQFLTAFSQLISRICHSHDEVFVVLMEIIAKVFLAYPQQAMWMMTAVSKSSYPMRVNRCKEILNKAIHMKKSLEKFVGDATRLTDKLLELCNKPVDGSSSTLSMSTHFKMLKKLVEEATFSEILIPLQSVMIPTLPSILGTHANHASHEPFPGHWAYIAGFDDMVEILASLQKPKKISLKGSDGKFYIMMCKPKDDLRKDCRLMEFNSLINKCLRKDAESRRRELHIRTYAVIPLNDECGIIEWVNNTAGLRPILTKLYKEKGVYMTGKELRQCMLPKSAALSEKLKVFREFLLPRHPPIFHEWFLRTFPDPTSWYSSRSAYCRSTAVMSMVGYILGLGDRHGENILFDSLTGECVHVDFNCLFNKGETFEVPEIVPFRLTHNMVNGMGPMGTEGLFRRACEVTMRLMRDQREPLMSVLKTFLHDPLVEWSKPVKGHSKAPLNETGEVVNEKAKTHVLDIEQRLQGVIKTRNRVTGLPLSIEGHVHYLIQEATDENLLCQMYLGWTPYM
Chain of ATR (Q8WXE1 whole entry partner): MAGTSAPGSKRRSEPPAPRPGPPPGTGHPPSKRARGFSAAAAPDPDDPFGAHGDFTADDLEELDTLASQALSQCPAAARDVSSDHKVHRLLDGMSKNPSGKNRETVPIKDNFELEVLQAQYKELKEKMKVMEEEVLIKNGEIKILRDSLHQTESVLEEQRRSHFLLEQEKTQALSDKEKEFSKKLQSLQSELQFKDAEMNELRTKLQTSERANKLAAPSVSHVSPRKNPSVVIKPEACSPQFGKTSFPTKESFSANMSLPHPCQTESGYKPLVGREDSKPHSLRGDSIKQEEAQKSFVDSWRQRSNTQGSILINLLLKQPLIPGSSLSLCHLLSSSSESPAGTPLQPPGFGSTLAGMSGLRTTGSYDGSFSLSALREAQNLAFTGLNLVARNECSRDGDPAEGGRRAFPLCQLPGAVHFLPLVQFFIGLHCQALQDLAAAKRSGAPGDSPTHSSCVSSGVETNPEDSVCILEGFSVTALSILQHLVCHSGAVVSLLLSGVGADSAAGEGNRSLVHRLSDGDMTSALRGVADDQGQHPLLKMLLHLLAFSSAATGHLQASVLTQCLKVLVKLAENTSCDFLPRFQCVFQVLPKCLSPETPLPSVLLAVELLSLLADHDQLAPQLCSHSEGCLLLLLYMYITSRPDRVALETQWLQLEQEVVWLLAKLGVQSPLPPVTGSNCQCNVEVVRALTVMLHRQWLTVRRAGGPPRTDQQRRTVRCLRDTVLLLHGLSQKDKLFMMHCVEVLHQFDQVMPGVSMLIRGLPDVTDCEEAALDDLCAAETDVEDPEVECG

Compound | IC50 (ATR) | melting point [°C] | also measured
C[C@@H]1COCCN1c1cc(C2([S@](C)(=N)=O)CC2)nc(-c2cc[nH]c3nccc2-3)n1 [AZD6738, ceralasertib, reference compound] |  |  | IC50 (LoVo cells): 410 ± 10 nM; IC50 (HCT116 cells): 4320 ± 160 nM; IC50 (A549 cells): 6600 ± 240 nM; tumor growth inhibition (TGI) (LoVo xenografts; 25 mg/kg twice daily, days 1-18, single agent, AZD6738 orally, ZH-12 intraperitoneally): 42.5%; IC50 (NCI-H23 cells): 500 ± 60 nM
CCS(=O)(=O)N1CCc2c(nc(-c3ccnc4[nH]ccc34)nc2N2CCOC[C@H]2C)C1 [ZH-1, (R)-4-(7-(ethylsulfonyl)-2-(1H-pyrrolo[2,3-b]pyridin-4-yl)-5,6,7,8-tetrahydropyrido[3,4-d]pyrimidin-4-yl)-3-methylmorpholine] | 53.3 ± 1.08 nM |  | 
CCC(=O)N1CCc2c(nc(-c3ccnc4[nH]ccc34)nc2N2CCOC[C@H]2C)C1 [ZH-2, (R)-1-(4-(3-methylmorpholino)-2-(1H-pyrrolo[2,3-b]pyridin-4-yl)-5,8-dihydropyrido[3,4-d]pyrimidin-7(6H)-yl)propan-1-one] | 41.6 ± 1.38 nM |  | 
CCCC(=O)N1CCc2c(nc(-c3ccnc4[nH]ccc34)nc2N2CCOC[C@H]2C)C1 [ZH-3, (R)-1-(4-(3-methylmorpholino)-2-(1H-pyrrolo[2,3-b]pyridin-4-yl)-5,8-dihydropyrido[3,4-d]pyrimidin-7(6H)-yl)butan-1-one] | 42.5 ± 1.05 nM |  | 
CC(C)CC(=O)N1CCc2c(nc(-c3ccnc4[nH]ccc34)nc2N2CCOC[C@H]2C)C1 [ZH-4, (R)-3-methyl-1-(4-(3-methylmorpholino)-2-(1H-pyrrolo[2,3-b]pyridin-4-yl)-5,8-dihydropyrido[3,4-d]pyrimidin-7(6H)-yl)butan-1-one] | 7.31 ± 0.16 nM |  | IC50 (LoVo cells): 18000 ± 1690 nM; IC50 (HCT116 cells): 5170 ± 580 nM; IC50 (A549 cells): 20800 ± 1210 nM; IC50 (NCI-H23 cells): 1740 ± 50 nM
C[C@@H]1COCCN1c1nc(-c2ccnc3[nH]ccc23)nc2c1CCN(C(=O)CC#N)C2 [ZH-5, (R)-3-(4-(3-methylmorpholino)-2-(1H-pyrrolo[2,3-b]pyridinedin-4-yl)-5,8-dihydropyrido[3,4-d]pyrimidin-7(6H)-yl)-3-oxopropanenitrile] | 11.3 nM and 10.8 nM | > 250 | 
C[C@@H]1COCCN1c1nc(-c2ccnc3[nH]ccc23)nc2c1CCN(C(=O)CO)C2 [ZH-6, (R)-2-hydroxy-1-(4-(3-methylmorpholino)-2-(1H-pyrrolo[2,3-b]pyridinedin-4-yl)-5,8-dihydropyrido[3,4-d]pyrimidin-7(6H)-yl)ethan-1-one] | 34.03 ± 0.27 nM | 174 to 176 | 
COCC(=O)N1CCc2c(nc(-c3ccnc4[nH]ccc34)nc2N2CCOC[C@H]2C)C1 [ZH-7, (R)-2-methoxy-1-(4-(3-methylmorpholino)-2-(1H-pyrrolo[2,3-b]pyridinedin-4-yl)-5,8-dihydropyrido[3,4-d]pyrimidin-7(6H)-yl)ethan-1-one] | 9.23 ± 0.16 nM | 294 to 296 | IC50 (LoVo cells): 5710 ± 810 nM; IC50 (HCT116 cells): 6020 ± 260 nM; IC50 (A549 cells): 25600 ± 1620 nM; IC50 (NCI-H23 cells): 6770 ± 430 nM
C[C@@H]1COCCN1c1nc(-c2ccnc3[nH]ccc23)nc2c1CCN(C(=O)C1CCOCC1)C2 [ZH-8, (R)-(4-(3-methylmorpholino)-2-(1H-pyrrolo[2,3-b]pyridin-4-yl)-5,8-dihydropyrido[3,4-d]pyrimidin-7(6H)-yl)(tetrahydro-2H-pyran-4-yl)methanone] | 27.5 ± 1.04 nM |  | 
C[C@@H]1COCCN1c1nc(-c2ccnc3[nH]ccc23)nc2c1CCN(C(=O)C1CC(=O)C1)C2 [ZH-9, (R)-3-(4-(3-methylmorpholino)-2-(1H-pyrrolo[2,3-b]pyridinedin-4-yl)-5,6,7,8-tetrahydropyrido[3,4-d]pyrimidine-7-carbonyl)cyclobutan-1-one] | 16 ± 1.08 nM | 222 to 224 | 
C[C@@H]1COCCN1c1nc(-c2ccnc3[nH]ccc23)nc2c1CCN(C(=O)C1CCC(=O)CC1)C2 [ZH-10, (R)-4-(4-(3-methylmorpholino)-2-(1H-pyrrolo[2,3-b]pyridinedin-4-yl)-5,6,7,8-tetrahydropyrido[3,4-d]pyrimidine-7-carbonyl)cyclohexan-1-one] | 27.5 nM and 11.9 nM | 240 to 242 | 
CCNC(=O)N1CCc2c(nc(-c3ccnc4[nH]ccc34)nc2N2CCOC[C@H]2C)C1 [ZH-11, (R)-N-ethyl-4-(3-methylmorpholino)-2-(1H-pyrrolo[2,3-b]pyridin-4-yl)-5,8-dihydropyrido[3,4-d]pyrimidine-7(6H)-carboxamide] | 11.4 ± 0.25 nM |  | 
C[C@@H]1COCCN1c1nc(-c2cccc3[nH]ccc23)nc2c1CCN(C(=O)C1CCOCC1)C2 [ZH-13, (R)-(2-(1H-indol-4-yl)-4-(3-methylmorpholino)-5,8-dihydropyrido[3,4-d]pyrimidin-7(6H)-yl)(tetrahydro-2H-pyran-4-yl)methanone] | 214.66 ± 0.04 nM |  | 
CCNC(=O)N1CCc2c(nc(-c3cccc4[nH]ccc34)nc2N2CCOC[C@H]2C)C1 [ZH-14, (R)-N-ethyl-2-(1H-indol-4-yl)-4-(3-methylmorpholino)-5,8-dihydropyrido[3,4-d]pyrimidine-7(6H)-carboxamide] | 14.9 ± 0.29 nM |  | 
N.N.[Cl][Pt][Cl] [cisplatin, reference compound] |  |  | tumor growth inhibition (TGI) (LoVo xenografts; cisplatin 6 mg/kg twice a week, alone): 26.1%
